# Laboratory results published in article PMC10790229 (Journal of medicinal chemistry, 2023).
# Read-outs that look alike come from different tables or passages of the source.
# What was measured:
# [1] = tested on: HIV-1 IIIB; assay: Anti-HIV-1 activity in MT-4 cells; assay type: cell-based; details: for SI IIIB (CC50/EC50) / fold improvement of anti-HIV-1 potency over 11L / fold improvement of anti-HIV-1 potency over PF74: HIV-1 IIIB; for SI IIIB (CC50/EC50) / fold improvement of anti-HIV-1 potency over 11L / fold improvement of anti-HIV-1 potency over PF74 / Ratio IIIB(EC50)/ROD(EC50): MT-4 cells; for EC50: Human immunodeficiency virus 1, IIIB, MT4, read-out: EC50 IIIB
# [2] = tested on: HIV-2 ROD; assay: Anti-HIV-2 activity in MT-4 cells; assay type: cell-based
# [3] = Cytotoxicity in uninfected MT-4 cells; assay type: cell-based; details: human
# [4] = target: monomeric HIV-1 CA NL4.3 protein (Human immunodeficiency virus type 1 group M subtype B, UniProt P12493); assay: SPR binding to monomeric HIV-1 CA; details: for Residence Time Monomer / koff Monomer: SPR, CA monomer
# [5] = target: hexameric HIV-1 CA NL4.3 protein (Human immunodeficiency virus type 1, UniProt P12493); assay: SPR binding to disulfide-stabilized hexameric HIV-1 CA; details: for Residence Time Hexamer / koff Hexamer: CA hexamer; for Kd: read-out: KD Hexamer, CA hexamer
# [6] = tested on: hexameric HIV-1 CA NL4.3 protein; assay: as above
# [7] = tested on: HIV-1; assay type: cell-based; details: 1 μM compound; DMSO = 100
# [8] = target: reverse transcriptase (RT) (Human immunodeficiency virus type 1 group M subtype B, UniProt P04585); assay: In vitro reverse transcriptase inhibition assay; assay type: biochemical, HIV-1; details: 900 nM
# [9] = target: CPSF6 peptide binding to hexameric HIV-1 CA NL4.3 protein (Human immunodeficiency virus type 1, UniProt P12493); assay: SPR-based CPSF6 peptide competition assay; details: read-out: IC50 CPSF6 peptide competition, CA hexamer
# [10] = target: HIV-1 CA-NC (Human immunodeficiency virus type 1 group M subtype B, UniProt P12493); assay: FRET-based in vitro CA assembly assay; assay type: biochemical; details: 50 μM compound
# [11] = tested on: p24 content of produced pseudoviruses; assay: ELISA-based quantification of capsid; assay type: cell-based, HIV-1; details: compound at 10× over EC50
# [12] = in vitro; assay type: in vitro ADME; details: human, plasma
# [13] = In vivo pharmacokinetic study in SD rats; details: Sprague-Dawley, rat
# [14] = human
# [15] = in vitro; details: human, microsomes
# [16] = in vivo, cited from earlier work
# [17] = tested on: MT-4 cells; assay: Cytotoxicity in uninfected MT-4 cells; assay type: cell-based
# [18] = Human immunodeficiency virus 2, MT4, read-out: EC50 ROD
# [19] = read-out: EC50 ROD, 50% protection of MT-4 cells against HIV-induced cytotoxicity, HIV-2 ROD
compound,measurement,setting,value
"Nc1ccc(S(=O)(=O)N2CCN(CC(=O)N[C@@H](Cc3cc(F)cc(F)c3)c3nc4ccccc4c(=O)n3-c3ccc(S(=O)(=O)N4CCOCC4)cc3)C(=O)C2)cc1 [21a2, (S)-2-(4-((4-Aminophenyl)sulfonyl)-2-oxopiperazin-1-yl)-N-(2-(3,5-difluorophenyl)-1-(3-(4-(morpholinosulfonyl)phenyl)-4-oxo-3,4-dihydroquinazolin-2-yl)ethyl)acetamide]",SI IIIB (CC50/EC50),[1],>1329.79
same,fold improvement of anti-HIV-1 potency over 11L,[1],2.5 fold
same,fold improvement of anti-HIV-1 potency over PF74,[1],7.3 fold
same,EC50,[1],0.11 ± 0.05 µM
same,Ratio IIIB(EC50)/ROD(EC50),[1],1.38
same,SI ROD (CC50/EC50),"[2]; HIV-2 ROD, MT-4 cells",>1923.08
same,EC50,[2]; [18],0.08 ± 0.01 µM
same,CC50,[3],> 152 µM
same,Kd,[4],0.244 ± 0.037 µM
same,Residence Time Monomer,[4],0.417 min
same,koff Monomer,[4],0.040 ± 0.007 s⁻¹
same,Residence Time Hexamer,[5],1.389 min
same,koff Hexamer,[5],0.012 ± 0.000 s⁻¹
same,Kd,[5],0.199 ± 0.019 µM
same,Ratio KD Monomer/KD Hexamer,[6],1.230
same,% Infection Early Stage,[7],0.109 ± 0.046%
same,% Infection Late Stage,[7],0.017 ± 0.003%
same,RT activity compared to RT control,[8],about 80%
same,IC50,[9],0.163 ± 0.0471 µM
same,effect on CA assembly,[10],enhance CA assembly
same,p24 content of the produced virus,[11],did not change significantly
same,remaining at 2 h,[12],102%
same,AUC,"[13]; iv, 2 mg/kg",574 ± 151 ng·h/mL
same,AUC(0-t),"[13]; iv, 2 mg/kg",572 ± 151 ng·h/mL
same,C0,"[13]; iv, 2 mg/kg",2980 ± 545 ng/mL
same,Cmax,"[13]; iv, 2 mg/kg",1650 ± 361 ng/mL
same,MRT,"[13]; iv, 2 mg/kg",17 ± 2.81 min
same,Tmax,"[13]; iv, 2 mg/kg",4.98 min
same,Vd,"[13]; iv, 2 mg/kg",2.58 ± 0.707 L/kg
same,half-life,"[13]; iv, 2 mg/kg",30.8 ± 10.6 min
same,clearance,"[13]; iv, 2 mg/kg, CL (i.v.), SD rat, i.v. 2 mg/kg",60.5 mL/min/kg
same,AUC,"[13]; po, 20 mg/kg",37.3 ng·h/mL
same,AUC(0-t),"[13]; po, 20 mg/kg",10.8 ± 17.4 ng·h/mL
same,Cmax,"[13]; po, 20 mg/kg",6.58 ± 8.24 ng/mL
same,MRT,"[13]; po, 20 mg/kg",182 min
same,Tmax,"[13]; po, 20 mg/kg",20 ± 8.64 min
same,half-life,"[13]; po, 20 mg/kg",121 min
same,"intrinsic CL in microsomes, CLint(mic)",[14],312.7 mL/min/kg
same,CLint scaled,[15],282 mL/min/kg
same,half-life,[15],4.4 min
same,microsomal CLint,[15],313 µL/min/mg
same,remaining at 1 h,[15]; % Remaining (NCF = 60 min),94.4%
same,remaining at 1 h,[15]; % Remaining (T = 60 min),0.2%
"CC(C)(C#Cc1ccc(-c2ccc(Cl)c3c(NS(C)(=O)=O)nn(CC(F)(F)F)c23)c([C@H](Cc2cc(F)cc(F)c2)NC(=O)Cn2nc(C(F)(F)F)c3c2C(F)(F)[C@@H]2C[C@H]32)n1)S(C)(=O)=O [LEN, Lenacapavir]",oral half-life T1/2,[16]; po,240 to 288 h
same,subcutaneous half-life T1/2,[16]; sc,8–12 weeks
"COc1ccc(N(C)C(=O)[C@H](Cc2ccccc2)NC(=O)CN2CCN(S(=O)(=O)c3ccc(N)cc3)CC2=O)cc1 [11L, reference compound]",EC50,[1],0.28 ± 0.09 µM
same,CC50,[3],198 ± 6.85 µM
"COc1ccc(-n2c([C@H](Cc3cc(F)cc(F)c3)NC(=O)CN3CCN(S(=O)(=O)c4ccc(N)cc4)CC3=O)nc3ccccc3c2=O)cc1 [12a2, (S)-2-(4-((4-Aminophenyl)sulfonyl)-2-oxopiperazin-1-yl)-N-(2-(3,5-difluorophenyl)-1-(3-(4-methoxyphenyl)-4-oxo-3,4-dihydroquinazolin-2-yl)ethyl)acetamide]",fold improvement of anti-HIV-1 potency over 11L,[1],2.5 fold
same,fold improvement of anti-HIV-1 potency over PF74,[1],7.3 fold
same,EC50,[1],0.11 ± 0.03 µM
same,Ratio IIIB(EC50)/ROD(EC50),[1],1.10
same,SI ROD (CC50/EC50),"[2]; HIV-2 ROD, MT-4 cells",>1736.11
same,fold improvement of anti-HIV-2 potency over PF74,"[2]; HIV-2 ROD, MT-4 cells",approximately 40 fold
same,EC50,[2]; [18],0.1 ± 0.01 µM
same,CC50,[3],> 178 µM
same,Kd,[4],0.838 ± 0.17 µM
same,Residence Time Monomer,[4],0.203 min
same,koff Monomer,[4],0.082 ± 0.011 s⁻¹
same,fold increase in affinity toward the CA hexamer compared to 11L,[5],2 fold
same,Residence Time Hexamer,[5],0.321 min
same,koff Hexamer,[5],0.052 ± 0.005 s⁻¹
same,Kd,[5],0.561 ± 0.031 µM
same,Ratio KD Monomer/KD Hexamer,[6],1.490
same,% Infection Early Stage,[7],0.092 ± 0.013%
same,% Infection Late Stage,[7],0.019 ± 0.002%
same,RT activity compared to RT control,[8],about 80%
same,IC50,[9],0.189 ± 0.0898 µM
same,effect on CA assembly,[10],enhance CA assembly
same,p24 content of the produced virus,[11],did not change significantly
same,remaining at 2 h,[12],110%
same,"intrinsic CL in microsomes, CLint(mic)",[14],143.4 mL/min/kg
same,CLint scaled,[15],129 mL/min/kg
same,half-life,[15],9.7 min
same,microsomal CLint,[15],143 µL/min/mg
same,remaining at 1 h,[15]; % Remaining (NCF = 60 min),107%
same,remaining at 1 h,[15]; % Remaining (T = 60 min),1.1%
"(S)-N-(1-(7-Chloro-3-(4-methoxyphenyl)-4-oxo-3,4-dihydroquinazolin-2-yl)-2-(3,5-difluorophenyl)ethyl)-2-(4-((4-nitrophenyl)sulfonyl)-2-oxopiperazin-1-yl)acetamide [11c2]",SI IIIB (CC50/EC50),[1],>277.78
same,Ratio IIIB(EC50)/ROD(EC50),[1],1.48
same,SI ROD (CC50/EC50),"[2]; HIV-2 ROD, MT-4 cells",>403.23
same,EC50,[2]; [19],0.4 ± 0.1 µM
same,CC50,[17],> 163 µM
"COc1ccc(-n2c([C@H](Cc3ccccc3)NC(=O)CN3CCN(S(=O)(=O)c4ccc([N+](=O)[O-])cc4)CC3=O)nc3cc(S(C)(=O)=O)ccc3c2=O)cc1 [11e1, (S)-N-(1-(3-(4-Methoxyphenyl)-7-(methylsulfonyl)-4-oxo-3,4-dihydroquinazolin-2-yl)-2-phenylethyl)-2-(4-((4-nitrophenyl)-sulfonyl)-2-oxopiperazin-1-yl)acetamide]",SI IIIB (CC50/EC50),[1],>58.14
same,Ratio IIIB(EC50)/ROD(EC50),[1],8.66
same,SI ROD (CC50/EC50),"[2]; HIV-2 ROD, MT-4 cells",>500.00
same,EC50,[2]; [19],0.32 ± 0.03 µM
same,CC50,[17],> 161 µM
"(S)-2-(4-((4-Aminophenyl)sulfonyl)-2-oxopiperazin-1-yl)-N-(1-(3-(4-(morpholinosulfonyl)phenyl)-4-oxo-3,4-dihydroquinazolin-2-yl)-2-phenylethyl)acetamide [21a1]",SI IIIB (CC50/EC50),[1],>1041.67
same,Ratio IIIB(EC50)/ROD(EC50),[1],1.50
same,SI ROD (CC50/EC50),"[2]; HIV-2 ROD, MT-4 cells",>1562.50
same,EC50,[2]; [19],0.1 ± 0.01 µM
same,CC50,[17],> 159 µM
"(S)-2-(4-((4-Aminophenyl)sulfonyl)-2-oxopiperazin-1-yl)-N-(1-(3-(4-methoxyphenyl)-7-(methylsulfonyl)-4-oxo-3,4-dihydroquinazolin-2-yl)-2-phenylethyl)acetamide [12e1]",SI IIIB (CC50/EC50),[1],>43.71
same,Ratio IIIB(EC50)/ROD(EC50),[1],10.97
same,SI ROD (CC50/EC50),"[2]; HIV-2 ROD, MT-4 cells",>480.77
same,EC50,[2]; [19],0.35 ± 0.03 µM
same,CC50,[17],> 168 µM
"Nc1ccc(S(=O)(=O)N2CCN(CC(=O)N[C@@H](Cc3cc(F)cc(F)c3)c3nc4ccccc4c(=O)n3-c3ccc(S(=O)(=O)N4CCS(=O)(=O)CC4)cc3)C(=O)C2)cc1 [21b2, (S)-2-(4-((4-Aminophenyl)sulfonyl)-2-oxopiperazin-1-yl)-N-(2-(3,5-difluorophenyl)-1-(3-(4-((1,1-dioxidothiomorpholino)sulfonyl)-phenyl)-4-oxo-3,4-dihydroquinazolin-2-yl)ethyl)acetamide]",SI IIIB (CC50/EC50),[1],>95.42
same,Ratio IIIB(EC50)/ROD(EC50),[1],2.52
same,SI ROD (CC50/EC50),"[2]; HIV-2 ROD, MT-4 cells",>240.38
same,EC50,[2]; [19],0.6 ± 0.15 µM
same,CC50,[17],> 144 µM
"COc1ccc(-n2c([C@H](Cc3cc(F)cc(F)c3)NC(=O)CN3CCN(S(=O)(=O)c4ccc(N)cc4)CC3=O)nc3cc(F)ccc3c2=O)cc1 [12b2, (S)-2-(4-((4-Aminophenyl)sulfonyl)-2-oxopiperazin-1-yl)-N-(2-(3,5-difluorophenyl)-1-(7-fluoro-3-(4-methoxyphenyl)-4-oxo-3,4-dihydroquinazolin-2-yl)ethyl)acetamide]",SI IIIB (CC50/EC50),[1],>568.18
same,Ratio IIIB(EC50)/ROD(EC50),[1],2.58
same,SI ROD (CC50/EC50),"[2]; HIV-2 ROD, MT-4 cells",>1488.10
same,EC50,[2]; [19],0.12 ± 0.03 µM
same,CC50,[17],> 173 µM
